Experiments:
[1] = test system: soft wheat (Triticum aestivum L.) variety Favorite; assay: Growth of soft wheat in soil artificially contaminated with imazethapyr (Example 2); type: in vivo; conditions: imazethapyr 10 mg/kg soil (Viaduk VK), without bacterization, 25 days
Experimental: (§1) The soil in the experiment was artificially polluted with the herbicide preparation “Viaduk VK” (Active substance: imazethapyr, 100 g/L), introducing the drug with water for irrigation at a dosage, according to the instructions, to a final concentration of imazethapyr 10 mg/kg of soil. The soil was moistened to 50% of the total moisture capacity. Seeds of soft wheat (Triticum aestivum L.) varieties “Favorite” 20 pcs. were sown in 1-liter pots containing 1 kg of soil. […]
(§2) The experiment was carried out under controlled conditions: at a temperature of 24/20° C., a light regime of 14/10 h (illumination—8000 lux), day/night, respectively, maintaining soil moisture at a level of 50% of the total moisture capacity by irrigation with settled tap water, the need for which was determined by weighing vessels. […] They were dried with filter paper, the length of roots and shoots was measured, they were separated and dried to constant weight at 65° C. […] The content of imazethapyr in soil was determined as described previously (Assalin M. R., Queiroz S. C. N., Ferracini V. L., Oliveira T., Vilhena E., Mattos M. L. T. A method for determination of imazapic and imazethapyr residues in soil using an ultrasonic assisted extraction and LC-MS/MS//Bull. Environ. Contam. Toxicol.—2014.—Vol. 93.—P. 360-364) using HPLC. […]

[2] = Imazethapyr content in soil in laboratory experiment (Example 2, HPLC); conditions: end of experiment (47 days), original contaminated soil 6.17
Experimental: as §1, §2

## CCc1cnc(C2=NC(C)(C(C)C)C(=O)N2)c(C(=O)O)c1 (stereo not drawn) [imazethapyr]
[1]
  growth of wheat plants in freshly contaminated soil: strong inhibition
[2]; soil with wheat
  Imazethapyr content: 5.90 mg/kg
[2]; soil without plants
  Imazethapyr content: 5.87 mg/kg
